Data reported in ChEMBL document CHEMBL1201862, “PubChem BioAssay data set” (2004).
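Method: 48-hour compound exposure of cells in 96-well plates, five concentrations, linear interpolation of endpoints. GI50 marks 50% less growth.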 Calls of active or inactive are those of the source. No stated cut-off is given here; in the data, active = GI50 up to about 1.1 µM and inactive = higher.

Key:
Experiment in all cases: inhibition of tumour cell growth, NCI panel, 48 h
SNB-78 = test system: SNB-78
DU-145 = test system: DU-145
HOP-18 = test system: HOP-18
786-0 = test system: 786-0
HCC 2998 = test system: HCC 2998
SF-295 = test system: SF-295
IGROV-1 = test system: IGROV-1
PC-3 = test system: PC-3
NCI-H522 = test system: NCI-H522
SNB-75 = test system: SNB-75
SF-268 = test system: SF-268
MDA-N = test system: MDA-N
RPMI-8226 = test system: RPMI-8226
T47D = test system: T47D
KM-20L2 = test system: KM-20L2
Hs-578T = test system: Hs-578T
NCI-H226 = test system: NCI-H226
LOX IMVI = test system: LOX IMVI
HT-29 = test system: HT-29
MDA-MB-231 = test system: MDA-MB-231

Measured: GI50

COc1cc2nncc(SCc3ccc(Cl)c(Cl)c3)c2cc1OC
inactive: SNB-78 40.7 µM | DU-145 > 100 µM | HOP-18 > 100 µM | 786-0 42.8 µM | HCC 2998 > 100 µM | SF-295 > 69.3 µM | IGROV-1 99.3 µM | PC-3 > 100 µM | NCI-H522 23.2 µM | SNB-75 24.4 µM | SF-268 > 69.5 µM | MDA-N > 100 µM | RPMI-8226 > 100 µM | T47D 34 µM | KM-20L2 6.85 µM | Hs-578T 80 µM | NCI-H226 > 100 µM | LOX IMVI 26.2 µM | HT-29 > 100 µM | MDA-MB-231 > 100 µM

CC(=O)N/C=C/c1cc(O)ccc1O
inactive: SNB-78 > 47.8 µM | DU-145 41.3 µM | HOP-18 16.4 µM | 786-0 33.2 µM | HCC 2998 50.8 µM | SF-295 32.3 µM | IGROV-1 > 55.1 µM | NCI-H522 3.67 µM | SNB-75 48.3 µM | SF-268 31.8 µM | RPMI-8226 40.3 µM | KM-20L2 40.8 µM | NCI-H226 46.3 µM | LOX IMVI 30.1 µM | HT-29 32.1 µM
